# Test results taken from patent US20260306502A1, “MITOCHONDRIAL UNCOUPLERS FOR TREATMENT OF METABOLIC DISEASES AND CANCER” (Mito Biopharma, LLC, priority 2022, published 2026).
# “Also recorded” adds a separate entry of the source.
# Key:
# [1] = PO pharmacokinetic study, oral exposure (Example B3); type: in vivo; conditions: for AUC at 24 h: blood, po, 10 mg/kg gavage; for oral absorption, systemic exposure: in words
# Experimental: The blood concentration of the compound was then determined at 0 (pre-dosing), 5 min, 15 min, 30 min, 1 hr, 2 hr, 4 hr, 8 hr, 24 hr time points by LC-MS/MS analysis (See Tables 1 and 2, vide supra).
# [2] = test system: HFD-induced diabetic mouse model and db/db mouse model; experiment: Efficacy in HFD-induced diabetic and db/db mouse models; type: in vivo; conditions: for reducing blood glucose, blood insulin, and glycated HbA1c: 5 mg/kg once daily PO, db/db and HFD mice; for minimal effective dose: Mus musculus, both HFD and db/db models, oral daily gavage, read-out: Efficacious dosage to reduce blood glucose in mouse models, oral daily gavage
# Experimental: For HFD induced diabetic mouse model, C57Bl6 mice (male, n=6) were induced to obese and diabetic conditions by feeding high-fat diet (HFD, 60% fat calories, Research Diet, Inc. New Brunswick, NJ) for 3-4 months. […] During the 3-week period, the mice continued feeding HFD. […] The blood glucose levels were measured after an overnight fast, plasma insulin levels were tested after 5-6 hours fast, and the glycated HbA1c levels were determined in whole blood samples.
# Experiments were similarly performed with other compounds, in either high-fat diet induced diabetes and fatty liver models, or in db/db mouse model, or in both, by daily oral gavage administration with low dosages.
# [3] = test system: carbon tetrachloride (CCl4)-induced liver fibrosis NASH murine model; experiment: CCl4-induced liver fibrosis NASH murine model; type: in vivo, mouse; conditions: CCl4 mice
# Experimental: CCl4 is a hepatotoxin that induces acute liver injury in mice and induces oxidative damage, inflammation, and liver fibrosis in mice, independent of liver steatosis, and thus is considered as a “pure” fibrotic model.
# C57Bl6 male mice at the age of 7-8 weeks were randomized into 3 groups: vehicle, CCl4 alone treatment, CCl4 plus Compound treatment, n=7. CCl4 was diluted in olive oil (1:5 v/v), and intraperitoneally injected at a dose of 750 μl/kg to the mice, twice a week for 6 weeks. Compound treatment started at the beginning of CCl4 injection. At the end of treatment, the mice were euthanized and liver tissue was collected. For histology analyses, the liver tissue was fixed and paraffin embedded; tissue sections were stained with hematoxylin and eosin (H&E), or with Picrosirius red. The fibrosis severities were scored by a board-certified pathologist based on Picrosirius red stain of the liver. For immunoblotting analyses, the liver tissue was homogenized and the proteins were separated by native page gel electrophoresis. The levels of Collagen I and GAPDH were detected by Collagen I polyclonal antibody (Abcam ab34710) and GAPDH (14C10) Rabbit mAb (Cell signaling #2118).
# [4] = test system: NIH3T3; experiment: Cell growth inhibition assay (SRB), NIH3T3; type: cell-based; conditions: Mus musculus, NIH3T3, 48 h
# Experimental: Cell growth inhibition assays were performed using a protocol standardized by National Cancer Institute (NCI) for evaluating anti-cancer drugs. Various mammalian cell lines were used for the assays. Briefly, the cells were inoculated into 96 well microtiter plates. After cell inoculation, the microtiter plates were incubated for cell growth for 24 h prior to the addition of compounds. After 24 h, two plates of each cell line were fixed in situ with TCA, to represent a measurement of the cell population for each cell line at the time of compound addition (Tz). Test compounds were solubilized in dimethyl sulfoxide. At the time of test compound addition, five 10-fold or ½ log serial dilutions were made to provide a total of five test compound concentrations plus control. Aliquots of 100 μl of these different test compound dilutions were added to the appropriate microtiter wells already containing 100 μl of the medium, resulting in the required final test compound concentrations. […] The bound stain was subsequently solubilized with 10 mM trizma base, and the absorbance was read on an automated plate reader at a wavelength of 515 nm. Using the seven absorbance measurements [time zero, (Tz), control growth, (C), and test growth in the presence of a compound at the five concentration levels (Ti)], the percentage growth was calculated at each of the test compound concentrations levels.
# [5] = test system: TGF-β signaling pathway; experiment: TGF-β signaling pathway activation (Smad2/3 phosphorylation) in LX-2 cells, immunoblotting; type: cell-based, human; conditions: 6 hrs, FIG. 17B
# Experimental: Cells were then harvested, and immunoblotting analyses was performed with antibodies against p-Smad2/3 (phosphorylated Smad2/3), Smad2/3, or GAPDH, as indicated.
# [6] = test system: MC38 cells; experiment: Anti-cancer effect in combination with a PD-1 inhibitor, MC38 cells transplanted in liver; type: in vivo, mouse; conditions: in words
# Description: FIG. 20A is the experimental design (see Example B12). Briefly, C57/Bl6 mice intrahepatically transplanted with MC38 cancer cells (day 0) were subject to various treatments starting on day 7: aPD-1 or isotype, mice were either treated with PD-1 antibody or its isotype antibody (control) by intraperitoneal (IP) injection on indicated days (PD-1 antibody has a half-life of over 1 week in mice); #64 or vehicle, mice were either treated with Compound #64 or vehicle by daily gavage. FIG. 20B is a table depicting outcomes of the experiments described in FIG. 20A and Example B12. aPD-1+#64 represents mice treated with PD-1 antibody (IP) and #64 (daily gavage); aPD-1 represents mice treated with PD-1 antibody (IP) and vehicle (gavage); control, represents mice treated with isotype antibody (IP) and vehicle (gavage); n is number of mice in each group. Tumor-positive is the number of tumor-bearing mice in each group; tumor-free is the number of tumor-free mice in each group; tumor-free % is the percentage of tumor-free animals in each group. […]
# The experimental design is illustrated in FIG. 20A. Mouse colon cancer cells, MC38, were transplanted in livers of immune competent B57/Bl6 mice, and the effect of the combinatory treatment was determined. […] Tumor incidence and volume were determined.
SMILES,AUC at 24 h [1] [ng·h/mL],"oral absorption, systemic exposure [1]","reducing blood glucose, blood insulin, and glycated HbA1c [2]",minimal effective dose [2] [mg/kg],"effect on fibrosis formation and fibrosis scores ([3]; 7.5 mg/kg/day, 6 weeks)",effect on collagen levels ([3]; immunoblotting),GI50 [4] [µM],effect on TGF-β signaling pathway activation (Smad2/3 phosphorylation) [5],efficacy in combinatory therapy with PD-1 antibody in treating metastatic cancer in mice [6]
"COCCN(CCOC)Cc1cc(Cl)cc(C(=O)Nc2nc3ccc(C(F)(F)F)cc3s2)c1O [Compound 25, 3-((bis(2-methoxyethyl)amino)methyl)-5-chloro-2-hydroxy-N-(6-(trifluoromethyl)benzo[d]thiazol-2-yl)benzamide]",10000 to 30000,excellent,highly efficacious,2.5,reduced fibrosis formation and improved fibrosis scores; also recorded: reduces fibrosis in CCl4 treated animals,reduces collagen levels,> 20,,
"COCCOCc1cc(C(F)(F)F)cc2sc(NC(=O)c3cc(Cl)cc(CN4C[C@@H](C)O[C@@H](C)C4)c3O)nc12 [Compound 64, 5-chloro-3-((cis-2,6-dimethylmorpholino)methyl)-2-hydroxy-N-(4-((2-methoxyethoxy)methyl)-6-(trifluoromethyl)benzo[d]thiazol-2-yl)benzamide]",10000 to 30000,excellent,highly efficacious,1 to 2.5,,,,blocks activation of TGF-β signaling pathway at early stages by inhibiting Smad2/3 phosphorylation,efficacious in combinatory therapy with PD-1 antibody
